The subject of test [1] is C4-2 cells. Put plainly: Cell proliferation assay (MTS) and trypan blue assay. The test is classed as cell-based, human. The note with it: SPOP-F133V C4-2 cells; GDC-0068 0.2 μM with JQ1 0.25 μM, 5 days. The method, then: CellTiter 96® AQueous One Solution Cell Proliferation Assay (MTS) (Promega) was used to measure cell growth according to the manufacturer's instructions. Briefly, cells were plated in 96-well plates at a density of 2,000 cells per well. At the indicated times, 20 μL of Cell Titer 96R Aqueous One Solution Reagent was added to medium. After incubating for 1 hour at 37° C. in the cell incubator, cell growth was measured in a microplate reader at 490 nm.
Trypan blue assay was performed to measure cell growth according to the manufacturer's instructions. Briefly, cells were plated in 6-well plates at a density of about 5×10^4 to about 1×10^5 cells per well. At the indicated time points, cells were trypsinized and suspended in 1 mL 1×PBS. 100 μL cells and 100 μL trypan blue solution (Sigma-Aldrich) were mixed, and the number of viable cells was measured using the Bio-Rad automated cell counter.
Cell proliferation was measured by using the MTS assay (Promega). Prostate cancer cells (2,000 per well) were seeded in 96-well plates with 100 μL of culture medium. Each well was added with 20 μL of CellTiter 96R AQueous One Solution Reagent (Promega) and absorbance was measured in a microplate reader at 490 nm.

The test system of a further test is C4-2 xenograft tumors. Put plainly: Prostate cancer xenografts in NSG mice. The following applies: SPOP-F133V C4-2 xenografts; GDC-0068 100 mg/kg with JQ1 50 mg/kg, 5 days a week, day 21. It counts as in vivo. The method, then:
6-week-old NOD-SCID IL-2-receptor gamma null (NSG) mice were generated and randomly divided into different experimental groups as indicated. All mice were housed in standard conditions with a 12-hour light/dark cycle and access to food and water ad libitum. For BRD2/3/4 knockdown studies, C4-2 cells (5×10^6), infected with lentivirus expressing empty vector (EV) or HA-SPOP-F133V mutant in combination with control shRNA or BRD2/3/4-specific shRNA, were mixed with Matrigel (in 100 μL 1×PBS plus 100 μL Matrigel (BD Biosciences)) and injected s.c. into the right flank of mice. After xenografts reached the size of about 100 mm^3, vehicle (10% beta cyclodextrin) or JQ1 (Sigma-Aldrich) at 50 mg/kg body weight was administered by i.p. injection 5 days a week. For studies with tumors treated with JQ1 and AKT inhibitor GDC-0068, C4-2 cells (5×10^6) infected with lentivirus expressing empty vector (EV) or HA-SPOP-F133V mutant were mixed with Matrigel (in 100 μL 1×PBS plus 100 μL Matrigel (BD Biosciences)) and injected s.c. into the right flank of mice. […] Growth in tumor volume was measured in a blinded fashion using digital caliper, and tumor volumes were estimated using the formula (L×W2)/2, where L is length of tumor and W is width. The volumes of tumors were compared, and P values were determined by a two-tailed Student's t test. […]

Test [2] deals with C4-2 cells. Put plainly: Western blot and RT-qPCR of protein and mRNA expression in C4-2 cells. The test is classed as cell-based, human. The following applies: 24 hours. The method, then: (§1) Cell lysates or immunoprecipitates were subjected to SDS-PAGE, and proteins were transferred to nitrocellulose membranes (GE Healthcare Sciences). The membranes were blocked in Tris-buffered saline (TBS, pH 7.4) containing 5% non-fat milk and 0.1% Tween-20, washed twice in TBS containing 0.1% Tween-20, and incubated with primary antibody overnight at 4° C., followed by secondary antibody for 1 hour at room temperature. The proteins of interest were visualized using ECL chemiluminescence system (Santa Cruz Biotechnology). Densitometry analysis of protein bands was analyzed on the Gel-Pro Analyzer software.
(§2) Total RNA was isolated from transiently transfected cells using the Trizol reagent (Thermo Fisher Scientific), and cDNA was reverse-transcribed using the Superscript RT kit (TOYOBO, Japan) according to the manufacturer's instructions. PCR amplification was performed using the SYBR Green PCR master mix Kit (TOYOBO, Japan). All quantization was normalized to the level of endogenous control GAPDH. The primer sequences for the SYBR green qPCR used were as follows: BRD2-F: 5′-[…]-3′ (SEQ ID NO:10); BRD2-R: 5′-[…]-3′ (SEQ ID NO:11); BRD3-F: 5′-[…]-3′ (SEQ ID NO:12); BRD3-R: 5′-[…]-[…]-3′ (SEQ ID NO:13); BRD4-F: 5′-[…]-GAG-3′ (SEQ ID NO:14); BRD4-F: 5′-[…]-3′ (SEQ ID NO: 15); RAC1-F: 5′-[…]-3′ (SEQ ID NO:16); RAC1-R: 5′-[…]-3′ (SEQ ID NO:17); FDFT1-F: 5′-ACTAT-[…]-3′ (SEQ ID NO:18); FDFT1-R: 5′-[…]-[…]-3′ (SEQ ID NO:19); DHCR24-F: 5′-[…]-GAGC-3′ (SEQ ID NO:20); DHCR24-R: 5′-[…]-3′(SEQ ID NO:21); DHCR7-F: 5′-[…]-3′ (SEQ ID NO: 22); DHCR7-R: 5′-[…]-3′ (SEQ ID NO:23); MVD-F: 5′-[…]-3′ (SEQ ID NO:24); MVD-R: 5′-CACAC-[…]-3′ (SEQ ID NO:25); PSA-F: 5′-[…]-[…]-3′ (SEQ ID NO:26); PSA-R: 5′-[…]-3′ (SEQ ID NO:27); TMPRSS2-F: 5′-[…]-3′ (SEQ ID NO: 28); TMPRSS2-R: 5′-[…]-3′ (SEQ ID NO:29); MYC-F: 5′-[…]-3′ (SEQ ID NO:30); MYC-R: 5′-CTTGT-[…]-3′ (SEQ ID NO:31); AR-F: 5′-[…]-TCACC-3′ (SEQ ID NO:32); AR-R: 5′-[…]-3′ (SEQ ID NO: 33); GAPDH-F: 5′-[…]-3′ (SEQ ID NO:34); and GAPDH-R: 5′-[…]-3′ (SEQ ID NO:35).
(§3) Cells were harvested and lysed by IP buffer (50 mM Tris-HCl, pH 7.4, 150 mM NaCl, 1% Triton X-100, 1% sodium deoxycholate and 1% protease inhibitor cocktails) on ice for more than 15 minutes. Cell lysate was centrifuged for 15 minutes at 13,000 rpm at 4° C., and the supernatant was quantified by BCA protein quantification assay. Equal amounts of protein sample were added into 4× sample buffer and boiled for 5 minutes. The sample was subjected to SDS-PAGE analysis and transferred to nitrocellulose membrane. The membrane was blocked by 5% milk for 1 hour at room temperature and incubated with primary antibody at 4° C. overnight. The next day, the membrane was washed three times with 1×TBST and incubated with horseradish peroxidase-conjugated secondary antibodies for 1 hour at room temperature. The protein bands were visualized by SuperSignal West Pico Stable Peroxide Solution (Thermo Fisher Scientific).
Total RNA was isolated using TRIzol reagent (Thermo Fisher Scientific). The NanoDrop 2000 spectrophotometer (Thermo Fisher Scientific) was used to assess RNA yield and quality. RNA was reversely transcribed using Superscript II reverse transcriptase (Thermo Fisher Scientific) following manufacturer's instructions. Quantitative real-time PCR was performed by mixing cDNA, gene-specific primers and IQ SYRB Green Supermix and detected by iCycler QTX detection system (Bio-Rad). The 2-ΔCt method was used to quantitate fold changes by normalizing to GAPDH.

For a further test, the system named is solid tumors. The note with it: patients with solid tumors; cited from earlier work.
Test [3] concerns BRD4. Put plainly: Western blot of BRD4 protein, ubiquitination and half-life in DU145 cells. The test is classed as cell-based, human. The method, then:
Co-Immunoprecipitation (Co-IP) Cells were harvested and lysed by IP buffer (50 mM Tris-HCl, pH 7.4, 150 mM NaCl, 1% Triton X-100, 1% sodium deoxycholate and 1% protease inhibitor cocktails) on ice for more than 15 minutes. Cell lysate was centrifuged for 15 minutes at 13,000 rpm at 4° C., and the supernatant was incubated with primary antibodies and protein A/G agarose beads (Thermo Fisher Scientific) with rotating at 4° C. overnight. The next day, the pellet was washed at least six times with 1×IP buffer on ice, and then subjected to western blotting analysis. Western Blotting
as §3
For orientation: A western blot detects proteins with antibodies after separation by electrophoresis.

A further test deals with BRD2/3/4. Nature of the test: Western blot and RT-qPCR of BRD2/3/4 in LNCaP cells. The following applies: 8 hours, MLN4924 200 nM, Bortezomib 200 nM, MG132 20 μM. The test is classed as cell-based. The method, then:
as §1, §2

The test system of the next test is SPOP and BRD2/3/4. Put plainly: Western blot, co-IP and in vivo ubiquitination assay in 293T cells. It counts as cell-based, human. The following applies: MG132 20 μM, 8 hours. The method, then:
To immunoprecipitate the ectopically expressed FLAG-tagged proteins, transfected cells were lysed 24 hours post-transfection in BC100 buffer. The whole-cell lysates were immunoprecipitated with the monoclonal anti-FLAG antibody-conjugated M2 agarose beads (Sigma-Aldrich) at 4° C. overnight. After three washes with lysis buffer, followed by two washes with BC100 buffer, the bound proteins were eluted using FLAG-Peptide (Sigma-Aldrich) prepared in BC100 for 3 hours at 4° C. The eluted protein sample was resolved by SDS-PAGE. To immunoprecipitate the endogenous proteins, cells were lysed with 1× cell lysis buffer (Cell Signaling Technology), and the lysate was centrifuged. The supernatant was precleared with protein A/G beads (Sigma-Aldrich) and incubated with the indicated antibody and protein A/G beads at 4° C. overnight. Beads were washed five times with lysis buffer and resuspended in sample buffer and analyzed by SDS-PAGE.
as §1
For the in vivo ubiquitination assay, C4-2 cells were transfected with plasmids for HA-Ub, FLAG-BRD4, and other indicated proteins. C ells were treated with 20 μM MG132 for 8 hours before being harvested and lysed with lysis buffer (50 mM Tris-HCl, pH 7.5, 150 mM NaCl, 1% NP40, 0.5% sodium deoxycholate, 1× protease inhibitor cocktail (PIC)). The lysate was subjected to co-immunoprecipitation using anti-FLAG-conjugated agarose beads as described in the Co-IP assay.

The test system of test [4] is BRD4. Put plainly: Western blot of BRD4 protein in PC-3 cells. The test is classed as cell-based, human. The following applies: MG132, 8 h. The method, then: as §3
Setting [5] is: DU145 cells, PD0332991 2 μM, 24 hours.
[6] abbreviates: DU145 cells, PD0332991 with JQ1, 24 hours.

Residues, ends and D or L forms follow the SMILES beside them. *: point of attachment. Cbz = O=C(OCc1ccccc1)*

As to `CC(C)NC[C@@H](C(=O)N1CCN(c2ncnc3c2[C@H](C)C[C@H]3O)CC1)c1ccc(Cl)cc1` [GDC-0068], the “SPOP mutation-conferred resistance to BET inhibitor, cells in culture” value with C4-2 cells [1] is listed as “completely overcame”. The “SPOP mutation-conferred resistance to BET inhibitor, tumors in mice” value in the test on C4-2 xenograft tumors was “completely overcame”. Also, in the test with C4-2 cells [2] (SPOP-F133V C4-2 cells, GDC-0068 1 μM, Western blot), the “SPOP mutation-induced activation of AKT downstream pathways” value is given as “abolished”. Also, the antitumor efficacy entry in the test on solid tumors was “effective antitumor efficacy”.

In the case of `CC(=O)c1c(C)c2cnc(Nc3ccc(N4CCNCC4)cn3)nc2n(C2CCCC2)c1=O` [PD0332991, 6-acetyl-8-cyclopentyl-5-methyl-2-[(5-piperazin-1-ylpyridin-2-yl)amino]pyrido[2,3-d]pyrimidin-7-one], the “BRD4 protein expression in DUB3 knockdown cells” value in the test on BRD4 [3] (DU145 cells, DUB3 shRNA, PD0332991 2 μM, 24 hours) is “little or no further reduction”. In the test on BRD4 [3] (setting [5]), the BRD4 polyubiquitination entry is given as “increased”, the “DUB3-induced upregulation of BRD4 protein” value is on record as “completely blocked” and the “DUB3-mediated deubiquitination of BRD4” value is given as “reversed”. Moreover, the BRD4 protein result with BRD4 [3] (DU145 cells, PD0332991 2 μM, time-dependent) is “decreased”. Further, in the test with BRD4 [3] (setting [6]), the “JQ1-induced inhibition of BRD4 polyubiquitination” value is recorded as “almost completely reversed” and the “JQ1-induced upregulation of BRD4 protein” value is “almost completely abolished”.

With `CC(C)C[C@@H](C=O)NC(=O)[C@H](CC(C)C)NC(=O)[C@H](CC(C)C)NC(=O)OCc1ccccc1` [MG132] (Cbz-Leu-Leu-Leu-aldehyde), the BRD2/3/4 protein level entry in the test with BRD2/3/4 is on record as “increased”. In the test with SPOP and BRD2/3/4, the “decrease of BRD2/3/4 proteins by wild-type SPOP expression” value is “completely reversed”. Also, the “PD0332991-induced decrease of BRD4 protein” value in the test with BRD4 [3] (DU145 cells, 24 hours, co-treatment with MG132) is reported as “completely impeded”. Also, in the test with BRD4 [3] (SPOP F133V-expressing DU145 cells, MG132, 8 hours), the “decrease of BRD4 protein levels by DUB3 knockdown” value was “blocked”. Moreover, the “downregulation of BRD4 proteins caused by DUB3 knockdown” value in the test on BRD4 [4] is on record as “reversed”.

Turning to `NS(=O)(=O)OC[C@@H]1C[C@@H](n2ccc3c(N[C@H]4CCc5ccccc54)ncnc32)C[C@@H]1O` [MLN4924], the BRD2/3/4 protein level entry in the test on BRD2/3/4 was “accumulation”.

Consider `CC(C)C[C@H](NC(=O)[C@H](Cc1ccccc1)NC(=O)c1cnccn1)B(O)O` [Bortezomib], for which, in the test on BRD2/3/4, the BRD2/3/4 protein level entry is on record as “increased”.

Consider `CC(/C=C/C(=O)NO)=C\[C@@H](C)C(=O)c1ccc(N(C)C)cc1` [trichostatin A], for which the “DUB3 protein and mRNA expression” value in the test with C4-2 cells [2] (C4-2 cells, TSA 1 μM) is on record as “increased”.
